Values quoted from earlier work, collected in patent EP1146906B1, “MUCOSAL DELIVERY SYSTEM” (Alk-Abelló A/S, priority 1999, dated 2000).
Like-named read-outs stand apart in the source and are kept apart here.

Conditions: compared to the parenteral equivalent

bioavailability (after nasal administration): 10%
bioavailability (after oral administration): 1%
Substance: desmopression
